According to US20140370067A1, “Method and applicator for the perioperative disinfection of medical instruments to be inserted through non-natural openings” (priority 2012, published 2014):

Assay: Effectiveness and irritation of lower octenidine concentration in gel formulation (statement in description)
Settings: concentration of 0.05% octenidine, compared with common 0.1%

## CCCCCCCCN=c1ccn(CCCCCCCCCCn2ccc(=NCCCCCCCC)cc2)cc1 [octenidine, 1,1′-(1.1 O-decandiyl) to [4-(octylamino)pyridinium]-dichloride]
  effectiveness: sufficiently good effectiveness
  irritation: lower irritation
